Entries after “also recorded” stand apart in the source; their conditions may differ. Like-named read-outs stand apart in the source and are kept apart here.
Tests used:
[1] = test system: human ovarian A2780 cancer cells; experiment: SRB growth inhibition assay, A2780; format: cell-based
Protocol: The concentrations of the osmium complexes that inhibit 50% of the proliferation of human ovarian A2780 cancer cells were determined by sulforhodamine B test. A2780 cells were seeded in 96-well plate (Falcon) at 5000 cells/well, after the incubation for 48 h, The complexes were solubilised in DMSO (Sigma) to provide 10 mM stocks. The stocks were serially diluted by cell culture media to give concentrations four-fold than the final concentrations for the assay. The dilutions of complexes in cell culture media were added to the 96-well plate with cells in triplicates to achieve the final concentrations. The final DMSO concentration in each well was no more than 1% (v/v). The complexes were removed after 24 h. The cells were washed with Phosphate Buffered Saline once and cell culture media was added 150 μL/well. The cells were recovered for 72 h. The surviving cells were fixed by adding 150 μL/well of 50% (w/v) trichloroacetic acid and incubated for 1 h at 277 K (277 K). The plates were washed with tap water three times and dried under a flow of warm air, 0.4% sulforhodamine B (Sigma) solution 100 μL/well followed by washing with 1% acetic acid five times and dried under a flow of warm air. The dye was dissolved in 10 mM Tris buffer […] The absorbance of each well was obtained by the Multiskan Ascent plate reader (Labsystems) at 540 nm. The absorbance value of SRB in each well is directly proportional to the cell number. Then the absorbance can be plotted against concentration and the IC50 determined by using Origin software.
The cytotoxicity studies were carried out as described previously above.

[2] = test system: A2780/cis ovarian (cisplatin-resistant); experiment: MTT growth inhibition assay, A2780/cis; format: cell-based, human; conditions: 96 h
Protocol: (§1) Tumor cell growth inhibition was assessed using the MTT assay.^13 2×10^3 cells were inoculated into a 96-well plate and incubated overnight at 37° C. in a humidified atmosphere containing 5% CO2. Complexes were solubilised in DMSO as above, and then diluted in complete cell culture medium to give a broad range of concentrations. Cisplatin was included in the screen as a comparator. Medium was removed from each well and replaced with complex or control solutions, and the plates then incubated for a further 96 hours. After 96 h culture medium was removed and 200 μL of 0.5 mg mL^−1 MTT solution (Sigma) in complete medium added to each well. Following further 4 h incubation, the solution was removed from each well and 150 μL of DMSO (Sigma) added to solubilise the formazan crystals resulting from MTT conversion. Absorbance values for the resulting solutions were read at 550 nm on a microplate reader and cell survival calculated as the absorbance of treated cells divided by the control. Results were expressed in terms of IC50 values (i.e. concentration of compound required to kill 50% of cells) and all experiments were performed in triplicate.
(§2) The following human cancer cell lines were cultured in RPMI 1640 cell culture medium supplemented with 1 mM sodium pyruvate, 2 mM L-glutamine and 10% fetal bovine serum (all from Sigma): A549 non-small cell lung, HCT-116 colon, MCF-7 breast, PC-3 prostate (all from LGC Promochem, Teddington, UK), A2780/cis ovarian (cisplatin-resistant) and RT-112 bladder (both from ECACC, Salisbury, UK).

A549 non-small cell lung = experiment: MTT growth inhibition assay, A549; format: cell-based, human; conditions: 96 h
Protocol: as §1, §2

HCT-116 colon = experiment: MTT growth inhibition assay, HCT-116; format: cell-based, human; conditions: 96 h
Protocol: as §1, §2

MCF-7 breast = experiment: MTT growth inhibition assay, MCF-7; format: cell-based, human; conditions: 96 h
Protocol: as §1, §2

PC-3 prostate = experiment: MTT growth inhibition assay, PC-3; format: cell-based, human; conditions: 96 h
Protocol: as §1, §2

RT-112 bladder = experiment: MTT growth inhibition assay, RT-112; format: cell-based, human; conditions: for IC50: MTT, 96 h
Protocol: as §1, §2

A2780 cells = experiment: N-acetyl-L-cysteine (NAC) treatment, cell viability by SRB; format: cell-based, human; conditions: pretreated with 5 mM NAC for 2 h; 1.2-1.8× IC50 (2.5× for cisplatin)
Protocol: Then NAC and osmium complexes were removed at the same time and washed with PBS once, the cells were incubate for 72 h for recovery. The cell viability was tested by SRB test same as used for IC50 test.

[3] = Stability and hydrolysis (1H NMR, MS, UV-vis); format: physicochemical; conditions: 310 K, 24 h, 95% deuterated phosphate buffer (10 mM)/5% MeOD-d4
[4] = test system: human A549 lung cancer cells; conditions: cited from earlier work; for activity towards human A549 lung cancer cells: up to concentrations of 100 μM
[5] = test system: Balb/c immunodeficient nude mice bearing HCT-116 tumours; experiment: Evaluation of in vivo toxicity in nude mouse HCT-116 xenograft model; conditions: i.v. day 0, doses from 2 up to 40 mg kg^−1, monitored 15 days
Protocol: Female Balb/c immunodeficient nude mice (Harlan, Loughborough, UK) aged 6-12 weeks were used. Mice received Harlan 2018 diet (Harlan) and water ad libitum. Mice were kept in cages in an air-conditioned room with regular alternating cycles of light and darkness. All animal procedures were carried out under a project license issued by the UK Home Office and UKCCCR guidelines (Workman P, Twentyman P, Balkwill F et al: United Kingdom Co-ordinating Committee on Cancer Research (UKCCCR) Guidelines for the Welfare of Animals in Experimental Neoplasia (Second Edition). Br J Cancer 77: 1-10, 1998) were followed throughout.
HCT-116 was used in the study. Tumours were excised from a donor animal, placed in sterile physiological saline containing antibiotics and cut into small fragments of approximately 2 mm^3. Under brief general inhalation anaesthesia, fragments were implanted in the […] abdominal flank of each mouse using a trocar. Once the tumours could accurately be measured using callipers (mean tumour volume of approximately 50 mm^3), treatment commenced. Complexes 3 and 6 were solubilised in 10% DMSO; 5% Tween-80; 85% saline and were administered intravenously to groups of 2 mice on day 0. Animals were weighed frequently and monitored for any deleterious effects over a period of 15 days.

pKa of hydroxyl group = format: physicochemical
[6] = cited from earlier work
tubulin = experiment: Tubulin polymerization assay; format: biochemical; conditions: 37° C., 60 min; for Inhibition of Tubulin Polimerziation: Osmium Compounds at 10 μM
Protocol: To follow the anticancer mechanism indicated by COMPARE, We have investigated whether osmium complexes can interacted directly with tubulin.
A Cytoskeleton tubulin polymerization assay kit (catalog no BK004) was used in the tubulin polymerization study. Briefly, 10 μL of general tubulin buffer (80 mM PIPES, pH 6.9, 2 mM MgCl2, and 0.5 mM EGTA) containing osmium compound, colchicine or taxol was pipetted into the prewarmed 96 well microplate. Tubulin (defrosted to room temperature from −80° C. and then placed on ice before use) was diluted with tubulin polymerization buffer with 1 mM GTP to a final concentration of 4 mg mL^−1. Diluted tubulin (100 μL) was added into the wells containing osmium compound, colchicine or taxol. Diluted tubulin (100 μL) mixed with general tubulin buffer (10 μL) served as control. The absorbance at 340 nm was read immediately with a Tecan microplate reader.

[7] = test system: human tumor 60-cell line panel; conditions: Data from NCI/DTP screening: October 2009, 48 h incubation; cited from earlier work
[8] = test system: HCT-116 colon adenocarcinoma s.c. xenograft model; experiment: In vivo efficacy in HCT-116 s.c. xenograft model; conditions: 8.0 mg kg^−1
[9] = SRB, 24 h exposure, 72 h recovery, read-out: IC50 values for azopyridine complexes against A2780 ovarian cancer cells
[10] = SRB, 24 h exposure, 72 h recovery, read-out: IC50 to A2780 cell line
[11] = A2780 human ovarian cancer cells, read-out: IC50 values against A2780
[12] = SRB, 24 h exposure, 72 h recovery, read-out: IC50 values for iminopyridine complexes against A2780 ovarian cancer cells

[(η^6-bip)Os(azpy-OH)Cl]PF6 [Complex 9]
IC50 [1, 9]: 800 nM

[Os(η^6-bip)(pp)Cl]PF6 [FY098]
IC50 [1, 10]: 4600 nM

[(η^6-p-cym)Os(Azpy-NMe2)Cl]PF6 [Complex 12]
IC50 [1, 9]: 1800 nM | IC50 [2]: 1800 nM | IC50 (A549 non-small cell lung): 5200 nM | IC50 (HCT-116 colon): 900 nM | IC50 (MCF-7 breast): 1100 nM | IC50 (PC-3 prostate): 6800 nM | IC50 (RT-112 bladder): 2200 nM | cell growth restored after NAC pretreatment (A2780 cells): only a small effect on restoring growth | stability and hydrolysis in aqueous solution [3]: remained stable and did not hydrolyze | cytotoxicity against the A549 cancer cell line [4]: did not show significant cytotoxicity | activity towards human A549 lung cancer cells [4]: No activity

[Os(η^6-bip)(pp-NMe2)I]PF6 [FY012]
IC50 [1, 10]: 140 nM

[Os(η^6-bip)(2-Br-Azpy)I]PF6 [FY061]
IC50 [1, 10]: 590 nM

[(η^6-bip)Os(Azpy-O)I].0.5H2O [3*]
IC50 [1, 11]: 140 nM | IC50 [2]: < 300 nM | IC50 (A549 non-small cell lung): 400 nM | IC50 (HCT-116 colon): < 300 nM | IC50 (MCF-7 breast): 250 nM | IC50 (PC-3 prostate): < 300 nM | IC50 (RT-112 bladder): 400 nM | difference in potency to cisplatin, RT-112 (RT-112 bladder; RT-112): 3 fold | toxicity / deleterious effects [5]: no evident toxicity; also recorded: negligible deleterious effects | pKa of the hydroxyl group (pKa of hydroxyl group): less than 7

[(η^6-bip)Os(pp)I]PF6 [Complex 14]
IC50 [1, 12]: 18600 nM

CN(C)c1ccc(N=Nc2ccccn2)cc1.F[P-](F)(F)(F)(F)F.[Cl-].[Os+2].c1ccc(-c2ccccc2)cc1 [Complex 11, [(η^6-bip)Os(azpy-NMe2)Cl]PF6]
IC50 [1, 9]: 3900 nM | cytotoxicity against the A549 cancer cell line [4]: did not show significant cytotoxicity | activity towards human A549 lung cancer cells [4]: No activity | solubility (in water / under test conditions), earlier report ([6]; listed as 11): low solubility | solubility (in water / under test conditions), earlier report ([6]; listed as [(η^6-bip)Os(Azpy-NMe2)Cl]PF6): poor solubility in water

[(η^6-p-cym)Os(Azpy)Cl]PF6 [Complex 8]
IC50 [1, 11]: > 50000 nM | IC50 [1, 9]: > 50000 nM | stability and hydrolysis in aqueous solution [3]: disappearance of the peaks corresponding to the azopyridine ligand

[(η^6-p-cym)Os(Azpy-OH)Cl]PF6 [Complex 10]
IC50 [1, 9]: 1300 nM

[(η^6-p-cym)Os(pp)Cl]PF6 [Complex 15]
IC50 [1, 12]: 26200 nM

[Os(η^6-bip)(pp-OH)Cl]PF6 [FY150]
IC50 [1, 10]: 2400 nM

[Os(η^6-bip)(1-Cl-azpy)I]PF6 [FY110]
IC50 [1, 10]: 3700 nM | Inhibition of Tubulin Polimerziation (tubulin): 11.4%

[(η^6-bip)Os(Azpy)Cl]PF6 [Complex 7]
IC50 [1, 9]: 13900 nM

Cc1ccc(C(C)C)cc1.F[P-](F)(F)(F)(F)F.[I-].[Os+2].c1ccc(N=Nc2ccccn2)cc1 [Complex 2, [(η^6-p-cym)Os(Azpy)I]PF6]
IC50 [1, 9]: 10200 nM

[Os(η^6-bip)(pp-NMe2)Cl]PF6 [FY093]
IC50 [1, 10]: 440 nM

N.N.[Cl][Pt][Cl] [Cisplatin, reference compound]
IC50 [1, 9]: 2000 nM | IC50 [1, 12]: 2000 nM | IC50 [2]: 4000 nM | IC50 (A549 non-small cell lung): 4100 nM | IC50 (HCT-116 colon): 2600 nM | IC50 (MCF-7 breast): 3000 nM | IC50 (PC-3 prostate): 21500 nM | IC50 (RT-112 bladder): 1400 nM | GI50 [7]: 10300 nM | TGI [7]: 50700 nM | Maximum % weight loss [8]: 8% | Median tumour doubling time [8]: 6.4 days | day of maximum % weight loss [8]: 6 days

[Os(η^6-bip)(2-Cl-Azpy)I]PF6 [FY078]
IC50 [1, 10]: 1000 nM

[Os(η^6-p-cym)(OH-Azpy-NO2)I]PF6 [FY036]
IC50 [1, 10]: 290 nM

[Os(η^6-p-cym)(abpy))I]PF6 [FY043]
IC50 [1, 10]: 10800 nM

[Os(η^6-bip)(1-CF3-4-Cl-Azpy)I]PF6 [FY107]
IC50 [1, 10]: 5700 nM | Inhibition of Tubulin Polimerziation (tubulin): 13.0%

Cc1ccc(C(C)C)cc1.F[P-](F)(F)(F)(F)F.Oc1ccc(N=Nc2ccccn2)cc1.[I-].[Os+2] [Complex 4, [(η^6-p-cym)Os(Azpy-OH)I]PF6]
IC50 [1, 9]: 300 nM

[Os(η^6-bip)(2-I-Azpy)I]PF6 [FY070]
IC50 [1, 10]: 220 nM

[Os(η^6-p-cym)(pp-OH)Cl]PF6 [FY119]
IC50 [1, 10]: 5500 nM

[Os(η^6-bip)(3-Cl-Azpy)I]PF6 [FY052]
IC50 [1, 10]: 22000 nM

[(η^6-p-cym)Os(pp-NMe2)Cl]PF6 [Complex 16]
IC50 [1, 12]: 3500 nM

[Os(η^6-bip)(2-F-Azpy)I]PF6 [FY069]
IC50 [1, 10]: 630 nM | Inhibition of Tubulin Polimerziation (tubulin): 21.0% | IC50 (tubulin; purified tubulin): ~20000 nM | effect on amount of tubulin polymerized (tubulin; purified tubulin): reduced the amount of tubulin polymerized in a dose-dependent manner

[Os(η^6-p-cym)(1-Cl-Azpy)I]PF6 [FY112]
IC50 [1, 10]: 9000 nM

[(η^6-p-cym)Os(pp-NMe2)I]PF6 [Complex 13]
IC50 [1, 12]: 400 nM

[Os(η^6-p-cym)(OH-Azpy-NO2)Cl]PF6 [FY033]
IC50 [1, 10]: 300 nM

CN(C)c1ccc(N=Nc2ccccn2)cc1.F[P-](F)(F)(F)(F)F.[I-].[Os+2].c1ccc(-c2ccccc2)cc1 [Complex 5, [(η^6-bip)Os(azpy-NMe2)I]PF6]
IC50 [1, 11]: 140 nM

F[P-](F)(F)(F)(F)F.[I-].[Os+2].c1ccc(-c2ccccc2)cc1.c1ccc(N=Nc2ccccn2)cc1 [Complex 1, [(η^6-bip)Os(Azpy)I]PF6]
IC50 [1, 9]: 5400 nM

[Os(η^6-p-cym)(2-I-Azpy)I]PF6 [FY067]
IC50 [1, 10]: 2400 nM

— patent publication US9598448B2, “Osmium (II) arene imino anti-cancer complexes” (University of Warwick, priority 2010, dated 2017)
